Patent US20240139176A1, “METHODS OF TREATING OR PREVENTING CACHEXIA” (Toray Industries, Inc., priority 2019, published 2024)
Counter-ions that a name gives are not always drawn.

What was measured:
[1] = tested on: tumor-bearing mouse model (non-small cell lung cancer model), A549 cells planted to nude mice; assay: Food intake and body weight in tumor-bearing mouse model (non-small cell lung cancer model), dosing from Day 23 after A549 plantation; type: in vivo; conditions: oral daily for 28 days (Day 23 to Day 50), Compound 1 0.25 mg/kg, anamorelin hydrochloride 30 mg/kg, combined 0.25 + 30 mg/kg, Dunnett's test P<0.05; for cumulative food intake in the period of administration, compared to distilled water-treated group: FIG. 3; for body weight after 28-day administration, compared to distilled water-treated group: FIG. 4
Procedure: Using tumor-bearing model animals where human alveolar basement epidermal gland cancer cells, A549 cells, were planted to nude mice, examination was performed about the drug efficacy on the food intake and body weight when Compound 1 and anamorelin hydrochloride were combined.
(§1) Subculture of A549 cells was performed using a 10% FBS-containing RPMI1640 culture medium. In evaluation of drug efficacy, 7-week old female BALB/C slc/nu/nu mice (Japan SLC, Inc.) were purchased, and used after habituated for one week. Cancer-bearing model animals were prepared as follows. Specifically, 2.5×10^7 cells of A549 cells were planted to the right abdominal of each mouse by subdermal administration. On Day 22 from the cell plantation, the mice were divided into groups to have an equal averaged tumor volume.
The effects of a variety of compounds on food intake and body weight were examined as follows. Specifically, for 28 days from Day 23 to Day 50 from the cell plantation, the compounds were orally administered daily, and the food intake and the body weight measured at the same time. For the doses of the compounds, the dose of Compound 1 was 0.25 mg/kg (13 examples), and the dose of anamorelin hydrochloride was 30 mg/kg (13 examples). In combined administration of Compound 1 and anamorelin hydrochloride, 0.25 mg/kg of Compound 1 and 30 mg/kg of anamorelin hydrochloride were used, where Compound 1 and anamorelin hydrochloride preliminarily dissolved in distilled water were mixed for preparation (13 examples). As a control, distilled water was administered in the same manner (13 examples). The food intake was calculated by subtracting the weight of the lid of each single cage containing food on the previous day from the weight of the lid of the single cage containing food on the day of measurement.
In FIG. 3, the ordinate represents the cumulative food intake in the period of administration of the compounds (from the start of administration to the day next to the final day of administration). In FIG. 4, the ordinate represents the body weight on Day 29 from the start of administration of the compounds (the day next to the final day of administration) (after 28-day administration). In the abscissas of FIGS. 3 and 4, “Distilled water” represents distilled water-treated group, “Compound 1” represents Compound 1-treated group, “Anamorelin” represents anamorelin hydrochloride-treated group, and “Combined administration” represents Compound 1 and anamorelin hydrochloride combined-treatment group. In FIGS. 3 and 4, the mark “*” represents a statistical significance (*: P<0.05) compared to distilled water-treated group (Dunnett's multiple test).

[2] = tested on: tumor-bearing mouse model (non-small cell lung cancer model having ghrelin resistance), A549 cells planted into nude mice; assay: Food intake and body weight in tumor-bearing mouse model (non-small cell lung cancer model having ghrelin resistance), dosing from Day 43 after A549 plantation; type: in vivo; conditions: oral daily for 28 days (Day 43 to Day 70), Compound 1 0.25 mg/kg, anamorelin hydrochloride 30 mg/kg, combined 0.25 + 30 mg/kg, Dunnett's test P<0.05; for cumulative food intake in the period of administration, compared to distilled water-treated group: FIG. 1; for body weight after 28-day administration, compared to distilled water-treated group: FIG. 2
Procedure: Using tumor-bearing model animals where human alveolar basement epidermal gland cancer cells, A549 cells, were planted into nude mice, examination was performed about drug efficacy on the food intake and the body weight when Compound 1 and anamorelin hydrochloride (MedChemExpress LLC) were combined.
as §1, with “Tumor-bearing” for “Cancer-bearing”, “41” for “22”
The effects of a variety of compounds on food intake and body weight were examined as follows. Specifically, for 28 days from Day 43 to Day 70 from the cell plantation, the compounds were orally administered daily, and the food intake and the body weight were measured at the same time. For the doses of the compounds, the dose of Compound 1 was 0.25 mg/kg (9 examples), and that of anamorelin hydrochloride was 30 mg/kg (9 examples). In combined administration of Compound 1 and anamorelin hydrochloride, 0.25 mg/kg of Compound 1 and 30 mg/kg of anamorelin hydrochloride were used, where Compound 1 and anamorelin hydrochloride preliminarily dissolved in distilled water mixed for preparation (9 examples). As a control, distilled water was administered in the same manner (9 examples). The food intake was calculated by subtracting the weight of the lid of each single cage containing food on the previous day from the weight of the lid of the single cage containing food on the day of measurement.
In FIG. 1, the ordinate represents the cumulative food intake in the period of administration of the compounds (from the start of administration to the day next to the final day of administration). In FIG. 2, the ordinate represents the body weight on Day 29 from the start of administration of the compounds (the day next to the final day of administration) (after 28-day administration). In the abscissas of FIGS. 1 and 2, “Distilled water” represents distilled water-treated group, “Compound 1” represents Compound 1-treated group, “Anamorelin” represents anamorelin hydrochloride-treated group, and “Combined administration” represents Compound 1 and anamorelin hydrochloride-combined treatment group. In FIGS. 1 and 2, the mark “*” represents a statistical significance (*: P<0.05) compared to distilled water-treated group (Dunnett's multiple test).

[3] = tested on: tumor-bearing mouse model (skin cancer model), B16/F10 cells planted to mice; assay: Food intake and body weight in tumor-bearing mouse model (skin cancer model), B16/F10 cells; type: in vivo; conditions: oral daily for 11 days (Day 5 to Day 15), Compound 1 0.05 mg/kg, anamorelin hydrochloride 30 mg/kg, combined 0.05 + 30 mg/kg; for cumulative food intake in the period of administration, compared to distilled water-treated group: Dunnett's test P<0.05, FIG. 5; for body weight after 11-day administration, compared to distilled water-treated group: FIG. 6
Procedure: Using tumor-bearing model animals where mouse malignant melanoma cells, B16/F10 cells, were planted to mice, and examination performed about the drug efficacy to the food intake and the body weight when Compound 1 and anamorelin hydrochloride were combined.
Subculture of B16/F10 cells was performed using a DMEM culture medium containing 10% FBS and penicillin-streptomycin. In evaluation of the drug efficacy, 6-weeks old female C57BL/6J mice (Charles River Laboratories, Japan, Inc.) when introduced were used after habituated for one week. The tumor-bearing model animals were prepared as follows. Specifically, 5×10^6 cells of B16/F10 cells were planted to the right abdominal of each mouse by subdermal administration. On Day 5 from the cell plantation, the mice were divided into groups to have an equal averaged tumor volume.
The effects of a variety of compounds on food intake and body weight were examined as follows. Specifically, for 11 days from Day 5 to Day 15 from the cell plantation, the compounds were orally administered daily, and the food intake and the body weight measured at the same time. For the doses of the compounds, the dose of Compound 1 was 0.05 mg/kg (8 examples), and that of anamorelin hydrochloride was 30 mg/kg (8 examples). In combined administration of Compound 1 and anamorelin hydrochloride, 0.05 mg/kg of Compound 1 and 30 mg/kg of anamorelin hydrochloride were used, where Compound 1 and anamorelin hydrochloride preliminarily dissolved in distilled water were mixed for preparation (8 examples). As a control, distilled water was administered in the same manner (8 examples). The food intake was calculated by subtracting the weight of the lid of each single cage containing food on the previous day from the weight of the lid of the single cage containing food on the day of measurement. Eight individuals of each group were divided into two cases, in each of which 4 individuals were raised. The food intake per one mouse was calculated by dividing the total food intake of the 2 cases by 8.
In FIG. 5, the ordinate represents the cumulative food intake in the period of administration of the compounds (from the start of administration to the day next to the final day of administration). In FIG. 6, the ordinate represents the body weight on Day 12 from the start of administration of the compounds (the day next to the final day of administration) (after 11-day administration). In the abscissas in FIGS. 5 and 6, “Distilled water” represents distilled water-treated group, “Compound 1” represents Compound 1-treated group, “Anamorelin” represents anamorelin hydrochloride-treated group, and “Combined administration” represents Compound 1 and anamorelin hydrochloride-combined treatment group. […]

[4] = third phase clinical trials; cited from earlier work

| SMILES | cumulative food intake in the period of administration, compared to distilled water-treated group [1] | body weight after 28-day administration, compared to distilled water-treated group [1] | cumulative food intake in the period of administration, compared to distilled water-treated group [2] | body weight after 28-day administration, compared to distilled water-treated group [2] | cumulative food intake in the period of administration, compared to distilled water-treated group [3] | body weight after 11-day administration, compared to distilled water-treated group [3] | lean body mass [4] |
| --- | --- | --- | --- | --- | --- | --- | --- |
| CN(C(=O)/C=C/c1ccoc1)[C@@H]1CC[C@@]2(O)[C@H]3Cc4ccc(O)c5c4[C@@]2(CCN3CC2CC2)[C@H]1O5 [Compound 1, (−)-17-(cyclopropylmethyl)-3,14β-dihydroxy-4,5α-epoxy-6β-[N-methyl-trans-3-(3-furyl)acrylamide]morphinanhydrochloride] | statistically significant increase of food intake was exhibited | statistically significant increase of body weight was exhibited | any statistically significant increase of food intake was not observed | any statistically significant increase in body weight was not observed | any statistically significant increase food intake was not observed | a tendency of increasing body weight was not exhibited | – |
| CN(C)N(C)C(=O)[C@@]1(Cc2ccccc2)CCCN(C(=O)[C@@H](Cc2c[nH]c3ccccc23)NC(=O)C(C)(C)N)C1 [anamorelin hydrochloride, 2-amino-N-[(1R)-2-[(3R)-3-benzyl-3-(N,N′,N′-trimethylhydrazinocarbonyl)piperidin-1-yl-]-1-(1H-indol-3-ylmethyl)-2-oxoethyl]-2-methylpropionamide] | a tendency of increasing food intake was observed | statistically significant increase of body weight was exhibited | any statistically significant increase of food intake was not observed | any statistically significant increase in body weight was not observed | any statistically significant increase food intake was not observed | a tendency of increasing body weight was not exhibited | significantly increases lean body mass |
